Laboratory results reported in patent publication US7858578B2, “Methods of inducing neuronal growth by a Fucose-α(1-2) galactose (fuc-α(1-2) gal) moiety and a lectin” (California Institute of Technology, priority 2004, dated 2010).
Where a SMILES comes first, the peptide text is derived from it. The star is where a group is joined. Cbz = O=C(OCc1ccccc1)*

Assays:
hippocampal slices = details: cited from earlier work
hippocampal neurons [1] = experiment: Effects of deoxy-galactose sugars on neuronal morphology (anti-tau immunostaining); type: cell-based, rat; details: for rescue of 2-dGal effects: 75 mM Gal for 2 days after 15 mM 2-dGal for 2 days
Method: Hippocampal neurons were plated on poly-DL-ornithine-coated glass coverslips as described above. After one day in culture, the medium was replaced with fresh medium, and the small molecules (2-dGal, 3-Deoxy-D-Galactose (3-dGal), or D-Galactose (Gal)) were added. A dose-response experiment was initially performed to determine the minimum concentration of 2-dGal needed to elicit an effect. Neurons were treated with varying concentrations of 2-dGal (1, 5, 10, 15, or 30 mM in 25 μL PBS with 475 μL of supplemented Neurobasal medium) for 2 days before immunostaining with anti-tau antibodies as described above.
Cells were treated as above under 4 different conditions: (1) no treatment for 2 days, (2) incubation with 15 mM 2-dGal for 2 days, (3) incubation with 15 mM 2-dGal for 2 days followed by incubation with 75 mM Gal for 2 days, or (4) incubation with 15 mM 3-dGal for 2 days. After adding the small molecules, cultures were incubated at 37° C., 5% CO2, then washed once with PBS, and immunostained with anti-tau antibody as described above.

E18 cortical neurons = experiment: Expression of synaptic proteins in cultured neurons (Western blotting); type: cell-based; details: 15 mM for 3 days, neurons 7 DIV
Method: FIG. 20. […] (A) E18 cortical neurons cultured for 7 DIV were treated with 15 mM of 2-dGal or 6-dGal for 3 days. Protein lysates were analyzed by Western blotting using antibodies selective for the indicated proteins. A significant reduction in the expression of synapsin Ib was observed, while other synapse-associated proteins were unaffected by the 2-dGal treatment. (B) Neurite retraction caused by 2-dGal is reduced in synapsin-deficient mice. Neurons from synapsin I-deficient or wild-type mice were cultured for 2 days, treated with 2-dGal for 3 days, and analyzed for mean neurite length.
To examine the effects of 2-dGal on synapsin fucosylation in neurons, neurons were cultured for 7 DIV to allow for adequate expression of synapsin and subsequently treated with 2-dGal or 6-dGal for comparison. Cells were lysed and immunoblotted as described above. […] The expression of other synaptic proteins, including NSF, the synaptic vesicle protein synaptotagmin, the presynaptic plasma membrane protein syntaxin, and the postsynaptic proteins PSD-95, the AMPA receptor GluR1 subunit and spinophilin, was unchanged by the 2-dGal treatment.

[2] = system: synapsin I expressed in HeLa cells; experiment: Synapsin fucosylation and expression in synapsin I-transfected HeLa cells (immunoblotting); type: cell-based; details: deoxy sugar for 24 h
Method: (§1) FIG. 19. Inhibition of synapsin fucosylation using 2-dGal decreases the expression and half-life of synapsin I. (A) Effects of 2-dGal and 6-dGal on synapsin fucosylation (left panel) and synapsin expression (right panel) levels. Synapsin I-transfected HeLa cells were treated with the indicated amounts of the deoxy sugar for 24 h. Fucosylation and synapsin expression levels were measured by immunoblotting with antibody A46-B/B10 and an anti-synapsin antibody, respectively. […] Synapsin I-transfected HeLa cells were treated with 2-dGal or a vehicle control (PBS), pulse labeled with ^35S-L-cysteine and ^35S-L-methionine as described in Materials and Methods, and chased for the indicated times. ^35S-labeled synapsin levels were measured by autoradiography. (C) Inhibition of the calcium-activated protease calpain using a calpain inhibitor peptide or calpeptin protects synapsin from degradation. […] Synapsin I-transfected HeLa cells were treated with the indicated inhibitors or vehicle control (DMSO, PBS or MeOH) in the presence or absence of 2-dGal for 15 h. Following lysis, the cell extracts were analyzed for synapsin expression levels by immunoblotting.
The effects of 2-dGal on synapsin I expressed in HeLa cells were next investigated. Cell lysates containing equivalent amounts of transfected protein were resolved by SDS-PAGE, and the fucosylation and protein levels of synapsin were measured by immunoblotting, using methods described above.

[3] = system: binding of antibody A46-B/B10 to bovine synapsin I; experiment: Competition ELISA; details: competitors 0.078-5 mM
Method: To gain insight into the structural determinants recognized by antibody A46-B/B10, competition enzyme-linked immunosorbent assay (ELISA) experiments were performed using a series of fucose analogs (FIG. 12 A, B). Purified bovine synapsin Ia/Ib (Ueda, T., et al., J. Biol. Chem., 252:5155-5163 (1977)) was a supplied by Drs. P. Greengard and A. Nairn (The Rockefeller University, New York, N.Y.). The protein was immobilized on a microtiter plate by incubation in 50 mM NaHCO3, pH 9.0 at 4° C. overnight. Antibody A46-B/B10 (0.02 mg/mL) and the competitors (0.078-5 mM) were incubated in TBST (50 mM Tris-HCl pH 7.4, 150 mM NaCl, 0.1% Tween-20) at 4° C. overnight and then transferred to the microtiter plate. The wells were washed with TBST and incubated with a goat anti-mouse secondary antibody conjugated to alkaline phosphatase (1:500) at rt for 1 h. The wells were washed with TBST and developed with p-nitrophenyl phosphate. Inhibition curves were generated using PRISM (GraphPAD Software, Inc.).
Synapsin Ia and Ib from bovine brain were immobilized on a microtiter plate, and binding of antibody A46-B/B10 to synapsin was assessed in the presence of varying concentrations of the competitors (see FIG. 12A for structures of the competitor molecules). […] (Haselhorst, T., et al., J. Am. Chem. Soc., 123:10705-10714 (2001))

[4] = system: synapsin I-transfected HeLa cells; experiment: Synapsin degradation with inhibitors of protein degradation with or without 2-dGal; type: cell-based; details: with 2-dGal, 15 h
Method: as §1
To investigate the molecular mechanisms responsible for synapsin degradation, cells expressing synapsin were treated with various inhibitors of protein degradation in the presence or absence of 2-dGal. Specifically, the lysosomal inhibitors bafilomycin A1 and ammonium chloride, the proteasome inhibitor MG132, and two inhibitors of the calcium-dependent protease calpain, were used.

hippocampal neurons [5] = experiment: Binding of biotinylated probe to cultured hippocampal neurons (streptavidin-AlexaFluor 488 imaging); type: cell-based, rat; details: 3 mM, 10 μM PAO
Method: Hippocampal neurons were cultured using a procedure modified from Goslin and Banker, in Culturing Nerve Cells, Banker, G., Goslin, K., Eds., pp. 251-281, MIT Press: Cambridge, Mass. 1991. Briefly, the hippocampi of embryonic day 18 (E18) rats were dissected and transferred to 4.5 mL of ice-cold Calcium and Magnesium Free-Hank's Balanced Salt Solution (CMF-HBSS). Trypsin (2.5%, no EDTA) was added to 5 mL, and the tissue was incubated for 15 min at 37° C. The trypsin solution was removed and the tissue sample washed three times with 5 mL of CMF-HBSS. Cells were then dissociated from the tissue in 1 mL of CMF-HBSS by passing through a P1000 pipet tip twenty times. The cells were counted, diluted into Minimal Eagle's Medium (MEM) plus 10% fetal bovine serum, and seeded on poly-DL-ornithine-coated glass coverslips (Carolina Biological) at a density of 75 cells/mm2 (100 μL/coverslip) for 30 min. After this time, 500 μL of supplemented Neurobasal medium (47.5 mL Neurobasal medium without Lglutamine; 0.5 mL L-glutamine (200 mM); 0.5 mL penicillin/streptomycin (10,000 U/mL); 0.5 mL antibiotic-antimycotic (100× stock), 1.0 mL B-27 serum-free supplement (50× stock); 50 μL of 0.5 M kynurenic acid in 1 N NaOH) was added to each coverslip. The use of kynurenic acid to block glutamate receptor ion channels and enhance neuronal health and survival is standard protocol for neuronal cultures. Id. The cultures were maintained in 5% CO2 at 37° C. in supplemental Neurobasal medium.
After 23 days in culture, the medium was replaced, and neurons were treated with the endocytosis inhibitor phenylarsine oxide (PAO; 4 μL in DMSO, final concentration 10 μM) (Nouel, D., et al., J. Neurosci. 17:1795-1803 (1997)) and either compound III (24 μL in PBS, final concentration 3 mM), or biotin (24 μL in PBS, final concentration 3 mM), in supplemented Neurobasal medium (400 μL final volume) for 1 h at 37° C., 5% CO2. After 1 h, neurons were rinsed 2 times with PBS, fixed in 4% paraformaldehyde for 20 min at rt, washed 2 times with PBS, permeabilized in 0.3% Triton X-100 for 5 min at rt, and washed 2 times with PBS. Non-specific binding was blocked with 3% BSA for 1 h at rt and then rinsed one time with PBS. Compound III was detected with streptavidin conjugated to AlexaFluor 488 (1:200, Molecular Probes). Dye-conjugated streptavidin was added in 3% BSA for 1 h at 37° C. and the excess reagent washed off 5 times with PBS. Coverslips were then mounted onto slides with Vectashield, sealed, and imaged using confocal laser microscopy. Results can be seen in FIG. 2.
De-lipidation was performed on some samples following the protocol of Yavin, E. et al., J. Neurosci. Res. 9:229-237 (1983). Briefly, after 23 days in culture, cells were rinsed once with PBS then exposed to MeOH/CHCl3 (½ by vol.) for 15 min at −80° C. This procedure fixes the cells to the coverslip and extracts cellular lipids. After removing the MeOH/CHCl3 mixture, coverslips were dried at rt then incubated with 3% BSA for 1 hr at rt. After one rinse with PBS, neurons were treated with PAO and the procedure described above was followed.

2′fucosyllactose
effect on LTP (hippocampal slices): enhance LTP

O=C[C@H](O)C[C@@H](O)[C@H](O)CO [Compound 3-dGal, 3-Deoxy-D-Galactose]
effect on neurite outgrowth (hippocampal neurons [1]; 15 mM for 2 days): no impact on neurite outgrowth

C[C@@H](O)[C@H](O)[C@H](O)[C@@H](O)C=O [Compound 6-dGal, 6-deoxy-D-galactose]
expression of synapsin I (E18 cortical neurons): no effect | fucosylation level of synapsin [2]: no effect | level of synapsin protein [2]: no effect

O=C[C@H](O)[C@@H](O)[C@H](O)[C@H](O)CO [D-glucose]
inhibition of antibody binding to synapsin Ia and Ib [3]: did not compete

CCO[C@@H]1O[C@H](CO)[C@H](O)[C@H](O)[C@H]1O[C@@H]1O[C@@H](C)[C@@H](O)[C@@H](O)[C@@H]1O [Fucα(1-2)Gal-β-OEt, Ethyl O-(α-L-fucopyranosyl)-(1-2)-β-D-galactopyranoside]
inhibition of antibody binding to synapsin Ia and Ib [3]: selectively inhibited

O=C[C@H](O)[C@@H](O)[C@@H](O)[C@H](O)CO [Gal, D-Galactose]
inhibition of antibody binding to synapsin Ia and Ib [3]: did not compete | rescue of 2-dGal effects (hippocampal neurons [1]): rescued | rescue of 2-dGal effects (hippocampal neurons [1]; listed as D-galactose): regeneration of the neuronal processes

CCOC1OC(C)C(O)C(O)C1O [L-Fuc-α-OEt, ethyl α/β-L-fucopyranoside]
IC50 (compared in words) [3]: comparable to that of the disaccharide Fucα(1-2)Gal-β-OEt | inhibition of antibody binding to synapsin Ia and Ib [3]: effective at inhibiting antibody binding

C[C@H](O)[C@@H](O)[C@@H](O)[C@H](O)C=O [L-fucose]
IC50 (compared in words) [3]: comparable to that of the disaccharide Fucα(1-2)Gal-β-OEt | inhibition of antibody binding to synapsin Ia and Ib [3]: effective at inhibiting antibody binding | effect on LTP (hippocampal slices): enhance LTP

CC(C)C[C@@H](C=O)NC(=O)[C@H](CC(C)C)NC(=O)[C@H](CC(C)C)NC(=O)OCc1ccccc1 [MG132] (Cbz-Leu-Leu-Leu-aldehyde)
rescue of synapsin from 2-dGal-induced degradation [4]: no effect on synapsin degradation

CC(=O)N[C@H]1C(O)O[C@H](CO)[C@@H](O)[C@@H]1O (stereo partly drawn) [N-acetyl-D-glucosamine]
inhibition of antibody binding to synapsin Ia and Ib [3]: did not compete

Cl.N [ammonium chloride]
rescue of synapsin from 2-dGal-induced degradation [4]: no effect on synapsin degradation

CO/C1=C\C(C)=C\[C@@H](C)[C@@H](O)[C@@H](C)C/C(C)=C/C=C/[C@H](OC)[C@@H]([C@@H](C)[C@@H](O)[C@H](C)[C@@]2(O)C[C@@H](O)[C@H](C)[C@@H](C(C)C)O2)OC1=O [bafilomycin A1]
rescue of synapsin from 2-dGal-induced degradation [4]: no effect on synapsin degradation

O=C(O)CCCC[C@@H]1SC[C@@H]2NC(=O)N[C@@H]21 [biotin]
labeling of neurons after de-lipidation (hippocampal neurons [5]; neurons de-lipidated with MeOH/CHCl3): minor binding of the biotin alone to the cell body but not the neurites | binding to hippocampal neurons (hippocampal neurons [5]; 1 h, E18 neurons 23 days in vitro): this binding is not between the biotin moieties and the neuron

CCCC[C@@H](C=O)NC(=O)[C@H](CC(C)C)NC(=O)OCc1ccccc1 [calpeptin]
rescue of synapsin from 2-dGal-induced degradation [4]: rescued the effects of 2-dGal
